As a reminder, the IC50 is the concentration needed to halve the response being measured.

Data set [1] concerns HIF target genes in Hep3B cells. The data set can be described thus: RT-qPCR of endogenous HIF target gene expression in Hep3B cells. It is filed as cell-based, human. The settings on record: Hep3B cells, 1% O2, 24 hours. The text has this: Based on this hit, we synthesized analogs in which either halogen substitutions to the indole groups were altered or the central thiazole was replaced by imidazole, isoxazole, oxadiazole, oxazole, pyrazinone, pyridazine, pyrazine, pyrazole, pyridine, thiadiazole, triazine, or triazole. […] We focused on analyzing the effect of the bis-bromoindole thiazole 32-134D and the bis-indole thiadiazole 33-063 on endogenous HIF target gene expression in Hep3B cells. […] For comparison, we tested the effect of PT2385, which inhibited EPO, NDRG1, ANGPTL4, and VEGFA expression but had no effect on CA9, which is consistent with its HIF-2–selective mechanism of action ([44]). None of the compounds had any effect on RPL13A expression, which is neither induced by hypoxia nor regulated by HIFs (Supplemental Figure 2D).
Human Hep3B and mouse Hepa1-6 cells were purchased from ATCC and grown in high-glucose (4.5 mg/mL) Dulbecco’s modified Eagle’s medium supplemented with 10% (vol/vol) fetal bovine serum and 1% penicillin/streptomycin at 37°C in a 5% CO2/95% air incubator (Supplemental Table 6). Human cell line identity was authenticated by analysis of short tandem repeats, and all cell lines were maintained mycoplasma free, using PCR-based assays conducted at the Johns Hopkins University Genetic Resources Core Facility (JHU GRCF). Cells were subjected to hypoxia in a controlled atmosphere chamber (PLAS Labs) with ambient gas mixture containing 1% O2 and 5% CO2.
(§1) RNA was extracted using TRIzol Reagent. Quantitative real-time PCR was conducted using SYBR Green PCR Master Mix and reactions were run using a Bio-Rad thermal cycler. Primer sequences and reagent sources are listed in Supplemental Table 5. The mRNA expression of target genes was normalized to the expression of 18S rRNA and the fold change (FC) was calculated based on the threshold cycle (Ct) as FC = 2^–Δ(ΔCt), where ΔCt = Cttarget gene – Ct18S rRNA and Δ(ΔCt) = ΔCttreatment – ΔCtcontrol. For RNA-seq, total RNA was isolated and treated with DNase (Qiagen). The JHU GRCF High-Throughput Sequencing facility prepared libraries and performed RNA-seq. The RNA-seq data were processed and interpreted using Genialis Expressions software (https://www.genialis.com/expressions/). An automated data analysis pipeline run in the Genialis platform consisted of the following: Sequence quality checks were performed on raw and trimmed reads with FastQC. Bbduk was used to trim adapters and filter out poor quality reads. Trimmed reads were then mapped to the STAR index (ENSEMBL 100) reference genome using the STAR ([93]) aligner. Gene expression levels were quantified with featureCounts ([94]), and differential gene expression analyses were performed with DESeq2 ([95]). […] Differential expression was determined with an FDR of less than 0.05 and mRNA FC of greater than 1.5 to identify hypoxia-induced genes and genes inhibited by 32-134D. Data used in this study have been deposited in the NCBI Gene Expression Omnibus database (GEO GSE195997).
Supplemental Figure 2. Effect of 32-134D on gene expression in Hep3B cells. (A-D) Hep3B cells were exposed to 20% O2 in the presence of vehicle (first bar; no fill) or 1% O2 in the presence of: vehicle (blue bar) or the indicated concentration of 32-134D (bars with red fill) or 33-063 (bars with green fill), or PT2385 (bars with brown fill) for 24 hours and the indicated mRNAs were quantified by reverse transcription and quantitative real-time PCR (qPCR). Data are presented as mean + SEM (n = 3). *p < 0.05 vs white; **p < 0.01 vs blue (ANOVA with Bonferroni post-test). […]
(G-H) Analysis of HIF-1a (G) and HIF-2a (H) […]
mRNA expression in Hep3B cells exposed to vehicle or 32-134D at 20% or 1% O2 for 24
Background: Quantitative PCR measures a nucleic acid by following its amplification.

The test system of data set [2] is HIF-1, HIF-2 and p300 recruitment to HREs. The data set can be described thus: ChIP-qPCR of HRE occupancy in Hep3B cells. Conditions: 16 hours, 5 µM 32-134D or 10 µM PT2385. Format: cell-based, human. The procedure:
Coadministration of the proteasome inhibitor MG-132 blocked the effect of 32-134D on HIF-1α protein levels (Figure 1H). […] Taken together, the results presented in Figure 1 and Supplemental Figures 1–3 indicate that 32-134D induces HIF-α subunit degradation, thereby inhibiting activation of HIF-1 and HIF-2 target gene transcription.
Cells were seeded overnight and then exposed to 20% or 1% O2 in the presence of compound or vehicle for 16 hours. Protein was cross-linked to DNA by addition of 37% formaldehyde to culture medium for 10 minutes at 37°C and quenched by addition of 0.1 M glycine. Cells were washed with and collected in 5 mL of cold PBS containing PIs. Cells were pelleted and resuspended in 200 μL of SDS lysis buffer (50 mM Tris-HCl [pH 8.1], 10 mM EDTA, 1% SDS) containing PIs and incubated on ice for 10 minutes. Lysates were sonicated to produce DNA fragments ranging from 200 to 900 bp and centrifuged for 10 minutes at 4°C. Supernatants were collected and diluted 10-fold with dilution buffer (16.7 mM Tris-HCl [pH 8.1], 167 mM NaCl, 1.2 mM EDTA, 0.01% SDS, 1.1% Triton X-100) with PIs, precleared with 20 μL of salmon sperm DNA/protein A agarose slurry, and a 20-μL aliquot was reserved as input control. Antibody (2 μg; see Supplemental Table 6) was added and samples were rotated overnight at 4°C. Immune complexes were precipitated with 50 μL of salmon sperm DNA/protein A agarose slurry. Pelleted beads were washed serially using low-salt wash buffer (20 mM Tris-HCl [pH 8.1], 150 mM NaCl, 2 mM EDTA, 0.1% SDS, 1% Triton X-100); high-salt wash buffer (20 mM Tris-HCl [pH 8.1], 500 mM NaCl, 2 mM EDTA, 0.1% SDS, 1% Triton X-100); LiCl wash buffer (10 mM Tris-HCl [pH 8.1], 0.25 M LiCl, 1% Nonidet P-40, 1% deoxycholate, 1 mM EDTA); and TE buffer (10 mM Tris-HCl [pH 8.1], 1 mM EDTA). Elution buffer (1% SDS, 0.1 M NaHCO3) was added and eluates were heated at 65°C overnight to reverse cross-linking. Eluates were treated with proteinase K for 1 hour at 45°C and DNA was purified by extraction in phenol/chloroform/isoamyl alcohol (25:24:1, v/v/v) and isopropanol precipitation. […]

The next data set deals with Hepa1-6 mouse HCC cells. Put plainly: RT-qPCR of hypoxia-induced gene expression in Hepa1-6 cells. It is filed as cell-based. Conditions: Hepa1-6, 1% O2, 24 hours. The procedure: Next, we analyzed Hepa1-6, which is a mouse HCC cell line. […] CXCL1, IL-6, and IL-10 were not induced by hypoxia, whereas hypoxia-induced IL-22 expression was inhibited by 32-134D (P < 0.05; Figure 3C).
Figure 3 Effect of 32-134D treatment on hypoxia-induced gene expression in Hepa1-6 cells. (A–C) Cells were exposed to 20% O2 and vehicle (white bars), 1% O2 and vehicle (blue bars), or 1% O2 and 32-134D (red bars) for 24 hours and mRNAs were quantified by RT-qPCR and normalized to white (mean ± SEM, n = 4). *P < 0.05 versus white; ^#P < 0.05 versus blue (ANOVA with Bonferroni’s post hoc test).
as §1
Supplemental Figure 7. Effect of 32-134D on gene expression in Hepa1-6 cells. Cells were exposed to 20% O2 and vehicle (white bar) or 1% O2 and vehicle (blue bar), 2.5-10 […]
for 24 hours and mRNAs were quantified by RT-qPCR and normalized to white (mean + SEM, n = 4). *p < 0.05 vs white; #p < 0.05 vs blue (ANOVA with Bonferroni post-test).
(1 picture or pasted object on this page, not shown here)

For data set [3] the following is noted: cited from earlier work.
Data set [4] deals with HIF-1α and HIF-2α protein. Put plainly: Immunoblot of nuclear extracts of Hep3B cells. It is filed as cell-based, human. The settings on record: 5 μM MG132 during last 8 hours, 5 μM 32-134D. The procedure: (§2) Figure 1 Identification of HIF inhibitors. (A) Hep3B-c1 cells were stably transfected with firefly luciferase (FLuc) reporter p2.1, which contains a hypoxia-response element (HRE), and Renilla luciferase (RLuc) reporter pSVR. (B) Hep3B-c1 cells were incubated with vehicle (Veh; 0.1% DMSO; blue bars) or 10 μM 32-134D (red bars) at 20% O2 (n = 6) or 1% O2 (n = 12) for 24 hours. Cell lysates were assayed for Fluc/Rluc activity (mean ± SEM); *P < 0.05 versus vehicle (χ^2 test). (C) Chemical structures and IC50 values for HIF inhibitors. (D and E) Hep3B cells were exposed to 20% O2 with vehicle, or 1% O2 with vehicle (blue bar), 32-134D (red bars), 33-063 (green bars), or PT2385 (brown bars) for 24 hours and CA9 (D) and EPO (E) mRNAs were quantified by RT-qPCR. […] (F) Hep3B cells were exposed to 20% or 1% O2 in the presence of vehicle or 1% O2 in the presence of 5 μM 32-134D (n = 3 each) for 24 hours. RNA sequencing identified genes with hypoxia-induced expression (blue circle) and genes that were inhibited by 32-134D (orange circle), based on FDR < 0.05 and fold change > 1.5. (G) Hep3B cells were exposed to 20% or 1% O2 for 24 hours in the presence of vehicle or 5 μM 32-134D, nuclear extracts were prepared, and immunoblot assays were performed. […]
On the technique in general: In western blotting, separated proteins are transferred to a membrane and probed.

Data set [5] deals with HIF transcriptional activity. The data set can be described thus: HIF-dependent luciferase reporter assay (FLuc/RLuc ratio) in Hep3B-c1 cells. It is filed as cell-based. The settings on record: Homo sapiens, 1% O2, 24 hours, read-out: IC50, inhibition of HIF-dependent reporter gene expression.
Excerpt: The NCI CellMiner database contains expression data for over 25,000 mRNAs in 60 human cancer cell lines that have been exposed to more than 20,000 chemical compounds ([49]). We searched CellMiner for a compound that induced changes in gene expression that were highly correlated with those induced by acriflavine, but which was structurally unrelated to acriflavine. Compounds that satisfied the above criteria were identified and subsequently analyzed in Hep3B-c1 cells ([50]), which are stably transfected with HIF-dependent reporter plasmid p2.1, in which firefly luciferase (FLuc) coding sequences are located downstream from a hypoxia-response element (HRE) and a basal SV40 promoter; and control reporter pSVR, in which Renilla luciferase (RLuc) coding sequences are downstream of the basal SV40 promoter only (Figure 1A). The FLuc/RLuc ratio in cells exposed to 1% O2 for 24 hours is a specific measure of HIF-dependent gene expression.
as §2, with “hours.” for “hours. RNA sequencing identified genes with hypoxia-induced expression (blue circle) and genes that were inhibited by 32-134D (orange circle), based on FDR < 0.05 and fold change > 1.5. (G) Hep3B cells were exposed to 20% or 1% O2 for 24 hours in the presence of vehicle or 5 μM 32-134D, nuclear extracts were prepared, and immunoblot assays were performed.”
Hep3B-c1 cells ([50]) were seeded on 24-well plates. […] FLuc/RLuc ratios were determined using the Dual Luciferase Reporter Assay System (Supplemental Table 6) and the VICTOR Nivo plate reader (PerkinElmer).
Background: In a reporter assay the amount or activity of a reporter protein is the signal.

The mark [6] stands for this setting: von Hippel-Lindau syndrome patients.

Where two headings read alike, the source gives them in different places. Where a SMILES comes first, the peptide text is derived from it. The star is where a group is joined. Cbz = O=C(OCc1ccccc1)*

With `CS(=O)(=O)c1ccc(Oc2cc(F)cc(C#N)c2)c2c1[C@H](O)C(F)(F)C2` [PT2385, reference compound], in data set [1], the “hypoxia-induced ANGPTL4, VEGFA, NDRG1 and EPO mRNA expression” value is on record as “inhibited”; the “hypoxia-induced CA9 mRNA expression (activated by HIF-1 only)” value was “no effect”. In data set [2], the “hypoxia-induced recruitment of HIFs and p300 to EPO and ANGPTL4 HREs” value is on record as “inhibited”. Also, the “ANGPTL4, PGF, and VEGFA mRNA expression, potency compared with 32-134D and 33-063” value in the data set with Hepa1-6 mouse HCC cells (5-10 µM) is reported as “less potent inhibitor”. The “patients with grade 3 anemia” value in data set [3] (phase I trial) is reported as 10%.
Consider `CC(C)C[C@@H](C=O)NC(=O)[C@H](CC(C)C)NC(=O)[C@H](CC(C)C)NC(=O)OCc1ccccc1` [MG-132, reference compound] (Cbz-Leu-Leu-Leu-aldehyde), for which, in data set [4], the “effect of 32-134D on HIF-1α protein levels on coadministration” value was “blocked”.
`Brc1ccc2c(-c3nc(-c4c[nH]c5ccc(Br)cc45)cs3)c[nH]c2c1` [Compound 11-88, reference compound]: in data set [5], the IC50 came out at 2900 nM.
`c1ccc2c(-c3nsc(-c4c[nH]c5ccccc45)n3)c[nH]c2c1` [Compound 33-063]: the IC50 in data set [5] was determined as 2200 nM. For the same compound, in data set [1], the “hypoxia-induced ANGPTL4, VEGFA, NDRG1 and EPO mRNA expression” value is recorded as “significantly inhibited”; the “hypoxia-induced CA9 mRNA expression (activated by HIF-1 only)” value is listed as “significantly inhibited”. In the data set on Hepa1-6 mouse HCC cells, the “RPL13A mRNA expression” value is given as “no effect”. In addition, the “hypoxia-induced ANGPTL4, EPO, PGF, and VEGFA mRNA expression” value in the data set on Hepa1-6 mouse HCC cells (2.5-10 µM) is on record as “significant dose-dependent inhibition”.
As for `CS(=O)(=O)c1ccc(Oc2cc(F)cc(C#N)c2)c2c1[C@H](O)[C@H](F)[C@@H]2F` [belzutifan/PT2977], in data set [3] (setting [6]), the “patients with decreased blood hemoglobin levels” value is 90% and the “patients with grade 3 anemia” value was 7%.

(Values after paper PMC9057582, “HIF inhibitor 32-134D eradicates murine hepatocellular carcinoma in combination with anti-PD1 therapy” (The Journal of Clinical Investigation, 2022).)
